Data reported in PMC11401813, “Grewiifopenes A–K, bioactive clerodane diterpenoids from Casearia grewiifolia Vent” (Natural Products and Bioprospecting, 2024).
Read-outs that look alike come from different tables or passages of the source.

Tests used:
[1] = system: HepG2 (hepatocellular carcinoma); assay: Cytotoxicity, MTT assay, HepG2; assay type: cell-based, human; conditions: MTT, mean ± s.d. (n = 3), read-out: IC50, HepG2
Procedure: (§1) The in vitro cytotoxicity assay toward a panel of human cancer cell lines of several clerodane diterpenoids has been well investigated. Thus, the isolates in adequate amounts were tested against MOLT-3 (acute lymphoblastic leukemia), HuCCA-1 (cholangiocarcinoma), HepG2 (hepatocellular carcinoma), A549 (lung adenocarcinoma), HeLa (cervical carcinoma), and MDA-MB-231 (triple negative breast cancer) cancer cell lines using the MTT and XTT methods. Doxorubicin and etoposide were used as positive controls.
(§2) The MTT (3-(4,5-dimethylthiazol-2-yl)-2,5-diphenyltetrazolium bromide) assay was employed for the cytotoxic evaluation against five human cancer cell lines, including HepG2, A549, MDA-MB-231, HeLa, and HuCCA-1, while the XTT (2,3-bis-(2-methoxy-4-nitro-5-sulphenyl)-(2H)-tetrazolium-5-carboxanilide) method was used for MOLT-3 cancer cell.

[2] = system: MOLT-3 (acute lymphoblastic leukemia); assay: Cytotoxicity, XTT method, MOLT-3; assay type: cell-based; conditions: Homo sapiens; MOLT-3 cell line; XTT; mean ± s.d. (n = 3); read-out: IC50, MOLT-3
Procedure: as §1, §2

[3] = system: A549 (lung adenocarcinoma); assay: Cytotoxicity, MTT assay, A549; assay type: cell-based, human; conditions: mean ± s.d. (n = 3)
Procedure: as §1, §2

[4] = system: MDA-MB-231 (triple negative breast cancer); assay: Cytotoxicity, MTT assay, MDA-MB-231; assay type: cell-based, human; conditions: MTT, mean ± s.d. (n = 3), read-out: IC50, MDA-MB-231
Procedure: as §1, §2

[5] = system: HeLa (cervical carcinoma); assay: Cytotoxicity, MTT assay, HeLa; assay type: cell-based, human; conditions: HeLa cell line, MTT, mean ± s.d. (n = 3); for IC50: read-out: IC50, HeLa
Procedure: as §1, §2

[6] = system: HuCCA-1 (cholangiocarcinoma); assay: Cytotoxicity, MTT assay, HuCCA-1; assay type: cell-based, human; conditions: MTT, mean ± s.d. (n = 3), read-out: IC50, HuCCA-1
Procedure: as §1, §2

[7] = target: T1, aromatase (CYP19) (Homo sapiens, UniProt P11511); assay: Aromatase (CYP19) inhibition assay; assay type: biochemical; conditions: for inhibition at 12.5 µM: at a concentration of 12.5 µM; for Aromatase inhibitory activity (in words): at the concentration up to 12.15 µM
T1 construct: purchased
T1 sequence (P11511 1-503): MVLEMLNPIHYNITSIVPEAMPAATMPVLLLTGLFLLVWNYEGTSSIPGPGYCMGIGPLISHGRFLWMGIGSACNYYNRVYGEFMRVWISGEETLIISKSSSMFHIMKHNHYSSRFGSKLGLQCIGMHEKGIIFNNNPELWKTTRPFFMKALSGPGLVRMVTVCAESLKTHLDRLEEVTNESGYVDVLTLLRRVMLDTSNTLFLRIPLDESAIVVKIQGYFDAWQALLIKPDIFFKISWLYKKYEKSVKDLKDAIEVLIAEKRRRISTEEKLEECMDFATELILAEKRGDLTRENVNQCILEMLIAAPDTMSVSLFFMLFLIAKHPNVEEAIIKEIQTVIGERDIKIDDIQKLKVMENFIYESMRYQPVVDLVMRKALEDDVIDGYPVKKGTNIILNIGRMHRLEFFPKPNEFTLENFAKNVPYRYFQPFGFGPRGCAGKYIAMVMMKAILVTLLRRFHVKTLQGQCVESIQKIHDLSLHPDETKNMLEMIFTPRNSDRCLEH
Procedure: In addition, the isolates were also evaluated for their antibacterial activity towards three strains including Bacillus cereus (ATCC 11778), Staphylococcus aureus (ATCC 6538) and Staphylococcus epidermidis (ATCC 12228) using penicillin G and gentamicin as the antibiotic controls (Table 5). […] Finally, the inhibitory activity of aromatase by using a CYP19 screening kit was investigated. The aromatase (also called estrogen synthase) is responsible for converting the non-aromatic ring A of androgens to estrogens, which are related to the proliferation of breast cancer cells.
The aromatase assay used a method previously designed by Stresser and co-workers.

[8] = Homo sapiens, HepG2, HepG2 cell line
[9] = Homo sapiens, A549, A549 cell line
[10] = Homo sapiens, MDA-MB-231, MDA-MB-231 cell line
[11] = Homo sapiens, HuCC-A1, HuCCA-1 cell line

Row | inhibition at 12.5 µM [7] [%] | Aromatase inhibitory activity (in words) [7] | Structure (SMILES) | IC50 [1, 8] [µM] | IC50 [2] [µM] | IC50 [3, 9] [µM] | IC50 [4, 10] [µM] | IC50, HeLa [5] | IC50 [6, 11] [µM] | IC50 ([5]; Homo sapiens, HeLa) [µM] | IC50 ([3]; A549 cell line) [µM] | IC50 ([1]; HepG2 cell line) [µM] | IC50 ([4]; MDA-MB-231 cell line) [µM] | IC50 [5] [µM] | IC50 ([6]; HuCCA-1 cell line) [µM]
1 |  |  | COc1cc([C@@H]2c3cc4c(cc3[C@@H](O[C@@H]3O[C@@H]5CO[C@@H](C)O[C@H]5[C@H](O)[C@H]3O)[C@H]3COC(=O)[C@H]23)OCO4)cc(OC)c1O [Etoposide, reference compound] | 33.5 ± 2.55 | 0.022 ± 0.004 |  |  |  |  |  |  |  |  |  | 
2 |  |  | C=CC(=C)CCC1(C)C(C)C(OC(=O)C=Cc2ccc(O)cc2)C(O)C23C(=CC(OC(=O)CC(C)C)CC12)C(OC)OC3OC(C)=O (centres unmarked) [Compound 13, Grewiifopene F] | 44.2 ± 4.4 | 3.7 ± 1 | 30.6 ± 3.9 | 37 ± 5.1 | I^a (Inactive for cytotoxicity with < 50% inhibition at a concentration of 50 µg/mL) | 41.4 ± 6.1 |  |  |  |  |  | 
3 | 18 | did not show activity | C=CC(=C)CC[C@]1(C)[C@H](C)C[C@H](OC)[C@@]23C(=C[C@H](OC(=O)[C@@H](C)CC)C[C@@H]12)[C@@H](OC(C)=O)O[C@H]3OC(C)=O [Compound 5, corymbulosin N] | 10 ± 0.5 | 3.4 ± 0.4 | 5 ± 0.9 | 8.7 ± 0.2 |  | 5.3 ± 0.1 | 5.6 ± 0.3 |  |  |  |  | 
4 |  |  | COc1cccc2c1C(=O)c1c(O)c3c(c(O)c1C2=O)C[C@@](O)(C(=O)CO)C[C@@H]3O[C@H]1C[C@H](N)[C@H](O)[C@H](C)O1 [Doxorubicin, reference compound] | 0.52 ± 0.1 | 0.01 ± 0.002 | 0.38 ± 0.02 | 2.09 ± 0.1 |  | 0.83 ± 0.07 | 0.32 ± 0.01 |  |  |  |  | 
5 |  |  | C=CC(=C)CC[C@]1(C)[C@H](C)C[C@H](OC)[C@@]23C(=C[C@H](OC(=O)C(C)C)C[C@@H]12)[C@@H](OC(C)=O)O[C@H]3OC(C)=O [Compound 6, corymbulosin K] | 11.8 ± 1.1 | 3.2 ± 0.2 | 5.8 ± 0.8 | 10.2 ± 0.6 |  | 5.6 ± 1.2 | 7.3 ± 0.3 |  |  |  |  | 
6 |  |  | C=CC(C)=CCC1(C)C(C)C(OC(=O)C=Cc2ccc(O)cc2)C(O)C23C(=CC(OC(=O)CC(C)C)CC12)C(OC(C)=O)OC3OC(C)=O (centres unmarked) [Compound 18, Grewiifopene K] |  |  |  |  |  |  |  | 2.2 ± 0.2 | 8.9 ± 1.2 | 2.5 ± 0.1 | 6.1 ± 0.3 | 1.6 ± 0.2
7 |  |  | C=CC(C)=CCC1(C)C(C)C(OC(=O)C=Cc2ccc(O)cc2)C(O)C23C(=CC(OC(=O)CC(C)C)CC12)C(OC(C)=O)OC3OC(C)=O (centres unmarked) [Compound 17, Grewiifopene J] | 7.1 ± 0.2 | 1 ± 0.1 | 2.4 ± 0.2 | 2 ± 0.1 |  |  |  |  |  |  | 2.8 ± 0.03 | 0.4 ± 0.03
8 | 0 | did not show activity | C=CC(=C)CC[C@]1(C)[C@H](C)[C@@H](OC(=O)CC(C)C)[C@H](O)[C@@]23C(=C[C@H](OC(=O)CC(C)C)C[C@@H]12)[C@@H](OC(C)=O)O[C@H]3OC(C)=O [Compound 12, Grewiifopene E] | 8.9 ± 0.3 | 1.7 ± 0.4 | 3.6 ± 0.04 | 7.6 ± 0.9 |  | 4.4 ± 0.4 | 3.8 ± 0.6 |  |  |  |  | 
